Entries after “also recorded” stand apart in the source; their conditions may differ.
Legend:
mice [1] = details: cited from earlier work; for response in both early and late phases: known analgesics [61]; for analgesia in both phases of the formalin test: [61]; for effect on late phase: anti-inflammatory compounds and steroids [61]
[2] = cited from earlier work; for inhibition of acetic acid induced writhing: 10 and 30 mg/kg (sc) [56]; for ED50: acetic acid writhing test [52]
mice [3] = details: mice [59]; cited from earlier work
mice [4] = details: mice [59]; cited from earlier work; remark: listed apart in the source
Male Quackenbush mice = assay: mouse formalin assay; type: in vivo
Experimental: The formalin assay involves the subcutaneous injection of a small amount of formalin into the fore or hind paw of a rat or mouse and the behavioural response to this injection is recorded as a measure of pain response.
The formalin assay was preformed on male mice using morphine, and other compounds of interest, as an analgesic, to test the viability and reliability of the assay as a means of measuring pain response in mice.
Male Quackenbush mice weighing 25-35 g were used. They were housed in colony cages (400×300×130 mm; Wiretainers) with ad libitum access to food (standard rat/mouse pellets; Norco Feeds) and water. For short term storage a maximum of 15-16 mice were housed per cage while for longer periods this number was reduced to less than 10 mice per cage. Bedding material was wood shavings or more commonly recycled paper pellets (Breeders Choice).
Formalin (Ajax) was supplied as solution of approximately 37.5% formaldehyde containing 10% methanol as a preservative. […]
Morphine and other compounds of interest were injected in a volume of 10 mL/kg intraperitoneally (ip) 30 minutes prior to formalin administration. […] The sole behavioural response recorded was the amount of time the animal spent biting or licking the injected paw or leg per 5 minute block was recorded. […]
Using this value a percentage pain inhibition can be calculated using the formula:—

FCA-rats [5] = assay: paw pressure test in rat model of inflammatory pain (FCA); type: in vivo, Sprague-Dawley rats; details: i.v. bolus; for dose-response of antinociceptive effect (AUC versus dose): ipsilateral hindpaw, FIG. 68
Experimental: Adult male Sprague-Dawley rats were housed in a temperature controlled room (21±2° C.) with a 12 h/12 h light/dark cycle and free access to both food and water. Ethical approval for this study was obtained from the Animal Experimentation Ethics Committee of The University of Queensland.
Inflammation of the rat hindpaw was induced by intra-plantar (i.pl.) injection of Freund's Complete Adjuvant (FCA, 0.15 mL) whilst rats were under brief 3% isoflurane: 97% oxygen inhalational anaesthesia. Inflammatory pain was assessed using the paw pressure test (see below for details). The test compounds were administered on either day 5 or day 6 following i.pl. FCA administration.
Jugular vein cannulation was performed whilst rats were anaesthetised with 3% isoflurane: 97% O2 inhalational anaesthesia maintained using a calibrated Trilene vapouriser. Polyethylene cannulae (previously filled with heparinised saline) were implanted into the right common jugular vein for i.v. drug dosing. Cannulae were exteriorized by subcutaneous (s.c.) tunneling to an incision made in the interscapular area, and protected by a stainless steel spring, the base of which was positioned in a subcutaneous pocket between the scapulae. Incisions were closed with sterile silk sutures. After surgery, rats were housed singly in metabolic cages and were allowed to recover post-operatively for a minimum of 2 h before further experimentation. Food and water were available ad libitum during the recovery period.
Each of the compounds F70.3.2 and F70.3.6 were dissolved in sterile saline. The compounds of interest were administered initially in a dose of 0.01 mg/kg in an injection volume of 0.5 mL. The other i.v. doses administered in this preliminary study were as follows:
Control rats received bolus doses of i.v. saline. Antinociceptive Testing: Paw Pressure Test
For the paw pressure test, rats were gently restrained under a towel, and incremental mechanical pressure (maximum=250 g) was applied to the dorsal surface of the hindpaw. The pressure required to elicit paw withdrawal, the paw pressure threshold (PPT), was determined. The mean of 3 consecutive measurements, separated by 10 s, was determined. The same procedure was then performed on the contralateral side with the sequence of sides being alternated to preclude order effects. Similarly, rats were gently restrained under a towel for the quantification of paw volumes using a plethysmometer.
Following administration of i.v. bolus doses of each of the test compounds (F70.3.2 and F70.3.6), paw withdrawal thresholds (g) were normalized by subtraction of the individual baseline PWT values quantified immediately prior to drug administration. The area under the normalized PWT versus time (AUC) was calculated using the trapezoidal rule. Dose-response curves were constructed by plotting the AUC values versus the i.v. dose for each of F70.3.2 and F70.3.6.

FCA-rats [6] = assay: side effects observed after i.v. bolus doses in FCA-rats; type: in vivo, Sprague-Dawley rats; design: key to Intensity: 0 = none; 1 = mild; 2 = moderate; 3 = severe; 4 = extreme
Experimental: Each of the compounds F70.3.2 and F70.3.6 were dissolved in sterile saline. The compounds of interest were administered initially in a dose of 0.01 mg/kg in an injection volume of 0.5 mL. The other i.v. doses administered in this preliminary study were as follows: […]

[7] = i.v. 0.005 mg/kg, Body shaking, Table 20
[8] = i.v. 0.01 mg/kg, Body shaking, Table 20
[9] = i.v. 0.02 mg/kg, Staring, Table 20
[10] = i.v. 0.05 mg/kg, Apnoea, Table 20
[11] = i.v. 0.05 mg/kg, Staring, Table 20
[12] = i.v. 0.005 mg/kg, Apnoea, Table 19
[13] = i.v. 0.02 mg/kg, Apnoea, Table 19
[14] = i.v. 0.02 mg/kg, Staring, Table 19

**Q.** For `CN1CCOC(c2ccccc2)c2ccccc2C1` (centres unmarked) [nefopam], which “response in both early and late phases” value (mice [1]) is on record?
**A.** The value was “can be reduced”.

**Q.** With `CC1(C)CC[C@]2(C(=O)O[C@@H]3O[C@H](CO[C@@H]4O[C@H](CO)[C@@H](O)[C@H](O)[C@H]4O)[C@@H](O)[C@H](O[C@@H]4O[C@H](CO)[C@@H](O)[C@H](O)[C@H]4O)[C@H]3O)CC[C@]3(C)C(=CC[C@@H]4[C@@]5(C)CC[C@H](O[C@@H]6O[C@H](CO)[C@@H](O)[C@H](O)[C@H]6O)[C@@](C)(C(=O)O)[C@@H]5CC[C@]43C)[C@@H]2C1` [Dianoside B] as the molecule, how does the “inhibition of acetic acid induced writhing” value [2] read?
**A.** The value was “significantly inhibit”.

**Q.** For `CC(=O)Nc1ccc(O)cc1` [paracetamol], which “analgesia in both phases of the formalin test” value (mice [1]) is on record?
**A.** Its value is “analgesic in a dose dependent manner in both phases”.

**Q.** Which “inhibition of acetic acid induced writhing” value [2] does the source give for `CC1(C)CC[C@]2(C(=O)O[C@@H]3O[C@H](CO)[C@@H](O)[C@H](O)[C@H]3O)CC[C@]3(C)C(=CC[C@@H]4[C@@]5(C)CC[C@H](O[C@@H]6O[C@H](CO)[C@@H](O)[C@H](O)[C@H]6O)[C@@](C)(C(=O)O)[C@@H]5CC[C@]43C)[C@@H]2C1` [Dianoside A] here?
**A.** Its value is “significantly inhibit”.

**Q.** Which “inhibition of p-phenylquinone induced writhing” value (mice [3]) does the source give for `CC(=O)Oc1ccccc1C(=O)O` [aspirin] here?
**A.** The value was 85%.

**Q.** What about the “analgesia in both phases of the formalin test” value (mice [1]) of the same molecule?
**A.** Its value is “analgesic in a dose dependent manner in both phases”.

**Q.** And the “inhibition of acetic acid induced writhing” value (mice [4])?
**A.** The value was 80%.

**Q.** What about the ED50 [2] of the same molecule?
**A.** The ED50 was 125 mg/kg.

**Q.** Which “response in both early and late phases” value (mice [1]) does the source give for `COc1ccc2c3c1O[C@H]1[C@@H](O)C=C[C@H]4[C@@H](C2)N(C)CC[C@@]341` [codeine] here?
**A.** The value was “can be reduced”.

**Q.** For `C[S+](C)[O-]` [DMSO control, dimethyl sulfoxide], which “reduction of pain response by DMSO” value (Male Quackenbush mice; high dose (5%) DMSO) is on record?
**A.** Its value is 57%.

**Q.** What does the source list for `CC(=O)OC1C(OC2OCC(OC(=O)c3ccccc3)C(OC(=O)C(C)C(C)OC(=O)c3ccccc3)C2O)C(C)(C)CC2C3=CCC4C5(C)CCC(OC6OC(C(=O)O)C(O)C(OC7OCC(O)C(O)C7O)C6OC6OC(CO)C(O)C(O)C6O)C(C)(C)C5CCC4(C)C3(C)CC(O)C21CO` [Compound F70.3.6, 3-O-β-D-xylopyranosyl(1→3)-[β-D-galactopyranosyl(1→2)]-β-D-glucuronopyranosyl-21-O-[3-(3-benzoyl-2-methylbutanoyl)-4-benzoyl-α-L-arabinopyranosyl]-22-O-acetyl barringtogenol C]?
**A.** antinociception, contralateral (non-inflamed) hindpaw (FCA-rats [5]): absence of antinociception; antinociception, ipsilateral hindpaw (FCA-rats [5]; dose range 0.002-0.01 mg/kg, FIG. 66): dose-related increase in the antinociceptive potency; antinociceptive response, ipsilateral hindpaw, on further increases in dose (FCA-rats [5]; doses above 0.01 mg/kg): decreased rather than an increased antinociceptive response; dose-response of antinociceptive effect (AUC versus dose) (FCA-rats [5]): distinct increase and then plateau; Duration (FCA-rats [6]; [7]): 5 min; Intensity (FCA-rats [6]; [7]): 1; No of rats observed with side-effect (FCA-rats [6]; [7]): 1/3; Onset (FCA-rats [6]; [7]): 15 min; Side effect (FCA-rats [6]; i.v. 0.005 mg/kg, Table 20): Body; Duration (FCA-rats [6]; [8]): 5 min; Intensity (FCA-rats [6]; [8]): 1; No of rats observed with side-effect (FCA-rats [6]; [8]): 1/3; Onset (FCA-rats [6]; [8]): 30 min; Side effect (FCA-rats [6]; i.v. 0.01 mg/kg, Table 20): Body; Duration (FCA-rats [6]; [9]): 15 min; Intensity (FCA-rats [6]; [9]): 1; No of rats observed with side-effect (FCA-rats [6]; [9]): 1/3; Onset (FCA-rats [6]; [9]): 45 min; Side effect (FCA-rats [6]; i.v. 0.02 mg/kg, Table 20): Staring; Duration (FCA-rats [6]; [10]): 30 min; Intensity (FCA-rats [6]; [10]): 1; No of rats observed with side-effect (FCA-rats [6]; [10]): 1/1; Onset (FCA-rats [6]; [10]): 5 min; Duration (FCA-rats [6]; [11]): 15 min; Intensity (FCA-rats [6]; [11]): 1; No of rats observed with side-effect (FCA-rats [6]; [11]): 1/1; Onset (FCA-rats [6]; [11]): 30 min; Side effect (FCA-rats [6]; i.v. 0.05 mg/kg, Table 20, 0.05 mg/kg, onset 5 min, lasting 30 min): Apnoea; Side effect (FCA-rats [6]; i.v. 0.05 mg/kg, Table 20, 0.05 mg/kg, onset 30 min, lasting 15 min): Staring

**Q.** Which ED50 [2] does the source give for barbatoside A here?
**A.** The ED50 was 95 mg/kg.

**Q.** For `COc1ccc2cc([C@H](C)C(=O)O)ccc2c1` [naproxen], which “effect on late phase” value (mice [1]) is on record?
**A.** The value was “affected”.

**Q.** For `CC(=O)OCC12C(O)CC3(C)C(=CCC4C5(C)CCC(OC6OC(C(=O)O)C(O)C(OC7OCC(O)C(O)C7O)C6OC6OC(CO)C(O)C(O)C6O)C(C)(C)C5CCC43C)C1CC(C)(C)C(OC(=O)c1ccccc1)C2O` [Compound F70.3.2, 3-O-β-D-xylopyranosyl(1→3)-[β-D-galactopyranosyl(1→2)]-β-D-glucuronopyranosyl-21-O-benzoyl-28-O-acetyl barringtogenol C], which “antinociception, contralateral (non-inflamed) hindpaw” value (FCA-rats [5]) is on record?
**A.** Its value is “absence of antinociception”.

**Q.** And the “antinociception, ipsilateral (inflamed) hindpaw (paw withdrawal threshold)” value (FCA-rats [5]; FIG. 65)?
**A.** The value was “dose-related increase in the antinociceptive potency”.

**Q.** What about the “dose-response of antinociceptive effect (AUC versus dose)” value (FCA-rats [5]) of the same molecule?
**A.** The value was “distinct increase and then plateau”.

**Q.** And the Duration (FCA-rats [6]; [12])?
**A.** The Duration was 0.5 min.

**Q.** What about the Intensity (FCA-rats [6]; [12]) of the same molecule?
**A.** Its Intensity is 1.

**Q.** What about the “No of rats observed with side-effect” value (FCA-rats [6]; [12]) of the same molecule?
**A.** Its value is 1/3.

**Q.** What about the Onset (FCA-rats [6]; [12]) of the same molecule?
**A.** The Onset was 180 min.

**Q.** And the Side effect (FCA-rats [6]; i.v. 0.005 mg/kg, Table 19)?
**A.** Its Side effect is “Apnoea”.

**Q.** What about the Duration (FCA-rats [6]; [13]) of the same molecule?
**A.** The Duration was 15 min.

**Q.** And the Intensity (FCA-rats [6]; [13])?
**A.** The Intensity was 1.

**Q.** What about the “No of rats observed with side-effect” value (FCA-rats [6]; [13]) of the same molecule?
**A.** The value was 1/3.

**Q.** And the Onset (FCA-rats [6]; [13])?
**A.** Its Onset is 30 min.

**Q.** What about the Duration (FCA-rats [6]; [14]) of the same molecule?
**A.** Its Duration is 15 min.

**Q.** And the Intensity (FCA-rats [6]; [14])?
**A.** The Intensity was 1.

**Q.** And the “No of rats observed with side-effect” value (FCA-rats [6]; [14])?
**A.** The value was 1/3.

**Q.** And the Onset (FCA-rats [6]; [14])?
**A.** Its Onset is 30 min.

**Q.** What about the Side effect (FCA-rats [6]; i.v. 0.02 mg/kg, Table 19, 0.02 mg/kg) of the same molecule?
**A.** The Side effect was “Apnoea; also recorded: Staring”.

**Q.** Which analgesia induced (mice [1]; at 6 mg/kg [64]) does the source give for `CN1CC[C@]23c4c5ccc(O)c4O[C@H]2[C@@H](O)C=C[C@H]3[C@H]1C5` [morphine] here?
**A.** The analgesia induced was “almost complete analgesia”.

**Q.** What about the “response in both early and late phases” value (mice [1]) of the same molecule?
**A.** Its value is “can be reduced”.

**Q.** And the “ED50, entire experimental period” value (mice [1]; subcutaneous, entire experimental period [63])?
**A.** Its value is 4.8 mg/kg.

**Q.** What about the ED50 (Male Quackenbush mice; Mus musculus, ip, read-out: ED50 (morphine dose response curve, pain inhibition)) of the same molecule?
**A.** Its ED50 is 4.8 mg/kg.

**Q.** With `C[C@]12CCC(=O)C=C1CC[C@@H]1[C@@H]2[C@@H](O)C[C@@]2(C)[C@H]1CC[C@]2(O)C(=O)CO` [hydrocortisone] as the molecule, how does the “effect on late phase” value (mice [1]) read?
**A.** The value was “affected”.

**Q.** With `Cc1ccccc1C(OCCN(C)C)c1ccccc1` (centres unmarked) [orphendarine] as the molecule, how does the “response in both early and late phases” value (mice [1]) read?
**A.** The value was “can be reduced”.

**Q.** Which “effect on late phase” value (mice [1]) does the source give for `COc1ccc2c(c1)c(CC(=O)O)c(C)n2C(=O)c1ccc(Cl)cc1` [indomethacin] here?
**A.** The value was “affected”.

Source: patent US7618946B2, “Analgesic compounds, extracts containing same and methods of preparation” (Griffith University, priority 2003, dated 2009)
